What was measured:
Format in all cases: in vivo
Alopecurus myosuroides [1] = experiment: Pre-emergence herbicidal activity against ALOMY; conditions: Alopecurus myosuroides, 504 h, dosage 80 g/ha, scored visually after about 3 weeks vs untreated controls
Summary of the method: (§1)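 Seeds sown in pots and covered with soil; compounds formulated as WP or EC applied to the soil surface as aqueous suspension or emulsion with 0.5% additive at 600 l/ha water. Pots held in greenhouse; activity scored visually about 3 weeks later as % versus untreated controls (100% = dead).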

Avena fatua [2] = experiment: Pre-emergence herbicidal activity against AVEFA; conditions: Avena fatua, 504 h, dosage 80 g/ha, scored visually after about 3 weeks vs untreated controls, read-out: Pre-emergence herbicidal activity in % against AVEVA (AVEFA)
Summary of the method: as §1

Echinochloa crus-galli [3] = experiment: Pre-emergence herbicidal activity against ECHCG; conditions: Echinochloa crus-galli, 504 h, dosage 80 g/ha, scored visually after about 3 weeks vs untreated controls
Summary of the method: as §1

Lolium rigidum [4] = experiment: Pre-emergence herbicidal activity against LOLRI; conditions: Lolium rigidum, 504 h, dosage 80 g/ha, scored visually after about 3 weeks vs untreated controls
Summary of the method: as §1

Setaria viridis [5] = experiment: Pre-emergence herbicidal activity against SETVI; conditions: Setaria viridis, 504 h, dosage 80 g/ha, scored visually after about 3 weeks vs untreated controls
Summary of the method: as §1

Amaranthus retroflexus [6] = experiment: Pre-emergence herbicidal activity against AMARE; conditions: Amaranthus retroflexus, 504 h, dosage 80 g/ha, scored visually after about 3 weeks vs untreated controls
Summary of the method: as §1

Pharbitis purpurea [7] = experiment: Pre-emergence herbicidal activity against PHBPU; conditions: dosage 80 g/ha, scored visually after about 3 weeks vs untreated controls
From the text: (§2) 1. Pre-emergence herbicidal action against harmful plants and crop plant compatibility Seeds of monocotyledonous and dicotyledonous weed plants and crop plants are placed in plastic or wood fiber pots and covered with soil. The compounds of the invention, formulated in the form of wettable powders (WP) or as emulsion concentrates (EC), are then applied onto the surface of the covering soil as aqueous suspension or emulsion with addition of 0.5% additive at a water application rate of 600 l/ha (converted). After the treatment, the pots are placed in a greenhouse and kept under good growth conditions for the trial plants. After about 3 weeks, the effect of the preparations is scored visually in comparison with untreated controls as percentages. For example, 100% activity=the plants have died, 0% activity=like control plants. [table]

Polygonum convolvulus [8] = experiment: Pre-emergence herbicidal activity against POLCO; conditions: Fallopia convolvulus, 504 h, dosage 80 g/ha, scored visually after about 3 weeks vs untreated controls
Summary of the method: as §1

Stellaria media [9] = experiment: Pre-emergence herbicidal activity against STEME; conditions: Stellaria media, 504 h, dosage 80 g/ha, scored visually after about 3 weeks vs untreated controls
Summary of the method: as §1

Viola tricolor [10] = experiment: Pre-emergence herbicidal activity against VIOTR; conditions: Viola tricolor, 504 h, dosage 80 g/ha, scored visually after about 3 weeks vs untreated controls
Summary of the method: as §1

Veronica persica [11] = experiment: Pre-emergence herbicidal activity against VERPE; conditions: Veronica persica, 504 h, dosage 80 g/ha
Summary of the method: as §1

Hordeum murinum [12] = experiment: Pre-emergence herbicidal activity against HORMU; conditions: Hordeum murinum, 504 h, dosage 80 g/ha
Summary of the method: as §1

Alopecurus myosuroides [13] = experiment: Post-emergence herbicidal activity against ALOMY; conditions: Alopecurus myosuroides, 504 h, dosage 320 g/ha, rated visually after about 3 weeks
Summary of the method: (§3)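 Weeds grown in sandy loam in greenhouse, treated at one-leaf stage (2–3 weeks after sowing) by spraying WP or EC formulations as aqueous suspension/emulsion with 0.5% additive at 600 l/ha. Activity rated visually about 3 weeks later versus untreated controls (100% = plants dead, 0% = like control).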

Avena fatua [14] = experiment: Post-emergence herbicidal activity against AVEFA; conditions: Avena fatua, 504 h, dosage 320 g/ha, rated visually after about 3 weeks
Summary of the method: as §3

Echinochloa crus-galli [15] = experiment: Post-emergence herbicidal activity against ECHCG; conditions: Echinochloa crus-galli, 504 h, dosage 320 g/ha, rated visually after about 3 weeks
Summary of the method: as §3

Lolium rigidum [16] = experiment: Post-emergence herbicidal activity against LOLRI; conditions: Lolium rigidum, 504 h, dosage 320 g/ha, rated visually after about 3 weeks
Summary of the method: as §3

Abutilon theophrasti = experiment: Post-emergence herbicidal activity against ABUTH; conditions: Abutilon theophrasti, 504 h, dosage 320 g/ha, rated visually after about 3 weeks
Summary of the method: as §3

Amaranthus retroflexus [17] = experiment: Post-emergence herbicidal activity against AMARE; conditions: Amaranthus retroflexus, 504 h, dosage 320 g/ha, rated visually after about 3 weeks
Summary of the method: as §3

Pharbitis purpurea [18] = experiment: Post-emergence herbicidal activity against PHBPU; conditions: Ipomoea purpurea, 504 h, dosage 320 g/ha, rated visually after about 3 weeks
Summary of the method: as §3

Polygonum convolvulus [19] = experiment: Post-emergence herbicidal activity against POLCO; conditions: Fallopia convolvulus, 504 h, dosage 320 g/ha, rated visually after about 3 weeks
Summary of the method: as §3

Stellaria media [20] = experiment: Post-emergence herbicidal activity against STEME; conditions: Stellaria media, 504 h, dosage 320 g/ha, rated visually after about 3 weeks
Summary of the method: as §3

Viola tricolor [21] = experiment: Post-emergence herbicidal activity against VIOTR; conditions: Viola tricolor, 504 h, dosage 320 g/ha, rated visually after about 3 weeks
Summary of the method: as §3

Veronica persica [22] = experiment: Post-emergence herbicidal activity against VERPE; conditions: Veronica persica, 504 h, dosage 320 g/ha, rated visually after about 3 weeks
Summary of the method: as §3

Hordeum murinum [23] = experiment: Post-emergence herbicidal activity against HORMU; conditions: Hordeum murinum, 504 h, dosage 320 g/ha, rated visually after about 3 weeks
Summary of the method: as §3

[24] = Pre-emergence herbicidal action against harmful plants (summary of the tables); conditions: 504 h, application rate of 0.08 kg of active substance or less per hectare, read-out: herbicidal action, pre-emergence treatment (very good activity)
From the text: as §2, with “plants.” for “plants. [table]”
As shown by the results, compounds according to the invention such as, for example, the compounds No. I-02 and other compounds from the tables (I-05, I-10, I-11, I-12, I-13, I-14, I-15, I-16, I-17, I-18, I-19, I-20, I-21, I-22, I-23, I-24, I-25, I-26, I-27, I-28, I-29) have, when used for pre-emergence treatment, very good activity (80% to 100% herbicidal action) against harmful plants such as Abutilon theophrasti, Alopecurus myosuroides, Amaranthus retroflexus, Avena fatua, Cyperus esculentus, Echinochloa crus-galli, Hordeum murinum, Lolium rigidum, Pharbitis purpurea, Polygonum convolvulus, Setaria viridis, Stellaria media, Veronica persica and Viola tricolor at an application rate of 0.08 kg of active substance or less per hectare.

Setaria viridis [25] = experiment: Post-emergence herbicidal activity against SETVI; conditions: Setaria viridis, 504 h, dosage 320 g/ha, rated visually after about 3 weeks
Summary of the method: as §3

Compound	pest or weed control at 80 g/ha (Alopecurus myosuroides [1]) [%]	pest or weed control at 80 g/ha (Avena fatua [2]) [%]	pest or weed control at 80 g/ha (Echinochloa crus-galli [3]) [%]	pest or weed control at 80 g/ha (Lolium rigidum [4]) [%]	pest or weed control at 80 g/ha (Setaria viridis [5]) [%]	pest or weed control at 80 g/ha (Amaranthus retroflexus [6]) [%]	Pre-emergence herbicidal activity in % against PHBPU (Pharbitis purpurea [7]) [%]	pest or weed control at 80 g/ha (Polygonum convolvulus [8]) [%]	pest or weed control at 80 g/ha (Stellaria media [9]) [%]	pest or weed control at 80 g/ha (Viola tricolor [10]) [%]	pest or weed control at 80 g/ha (Veronica persica [11]) [%]	pest or weed control at 80 g/ha (Hordeum murinum [12]) [%]	pest or weed control at 320 g/ha (Alopecurus myosuroides [13]) [%]	pest or weed control at 320 g/ha (Avena fatua [14]) [%]	pest or weed control at 320 g/ha (Echinochloa crus-galli [15]) [%]	pest or weed control at 320 g/ha (Lolium rigidum [16]) [%]	pest or weed control at 320 g/ha (Abutilon theophrasti) [%]	pest or weed control at 320 g/ha (Amaranthus retroflexus [17]) [%]	pest or weed control at 320 g/ha (Pharbitis purpurea [18]) [%]	pest or weed control at 320 g/ha (Polygonum convolvulus [19]) [%]	also measured
C=C[C@]1(C(=O)N[C@@H]2CO[C@H](C(=O)NOCC)C2)CC(c2cc(F)cc(F)c2)=NO1 (mixture of isomers) [Example I-12, (5S)-3-(3,5-difluorophenyl)-N-[cis-5-(ethoxycarbamoyl)tetrahydrofuran-3-yl]-5-vinyl-4H-isoxazole-5-carboxamide]	100	100	100	100	100	100	90	100	100	100	100	100	90	100	90	90	80	80	80	80	pest or weed control at 320 g/ha (Stellaria media [20]): 90%; pest or weed control at 320 g/ha (Viola tricolor [21]): 80%; pest or weed control at 320 g/ha (Veronica persica [22]): 80%; pest or weed control at 320 g/ha (Hordeum murinum [23]): 90%; pest or weed control at 80 g/ha [24]: 80 to 100%
C=C[C@]1(C(=O)N[C@@H]2CO[C@H](C(=O)NOC(C)C)C2)CC(c2cc(F)cc(F)c2)=NO1 (mixture of isomers) [Example I-13, (5S)-3-(3,5-difluorophenyl)-N-[cis-5-(isopropoxycarbamoyl)tetrahydrofuran-3-yl]-5-vinyl-4H-isoxazole-5-carboxamide]	100	100	100	100	100	100	90	100	100	100	90	100	90	90	90	90	80	80	80	80	pest or weed control at 320 g/ha (Setaria viridis [25]): 90%; pest or weed control at 320 g/ha (Stellaria media [20]): 90%; pest or weed control at 320 g/ha (Viola tricolor [21]): 80%; pest or weed control at 320 g/ha (Veronica persica [22]): 80%; pest or weed control at 320 g/ha (Hordeum murinum [23]): 90%; pest or weed control at 80 g/ha [24]: 80 to 100%

— patent publication US11613522B2, “Herbicidally active 3-phenylisoxazoline-5-carboxamides of tetrahydro- and dihydrofurancarboxamides” (BAYER AKTIENGESELLSCHAFT, priority 2017, dated 2023)
